Source: patent publication US20260102377A1, “COMPOSITIONS AND METHODS FOR TREATING MYASTHENIA GRAVIS” (priority 2022, published 2026)
“Also recorded” adds a separate entry of the source.

Experiments:
[1] = test system: patients with myasthenia gravis; assay: Phase IIA clinical trial (Part C): Quantitative Myasthenia Gravis test; format: in vivo, human
Method: For each subject, the study consisted of three study periods during which subjects received either a single dose of NMD670 400 mg, NMD670 1200 mg, or placebo with a 7-day washout period between visits. On these study visits, subjects were asked to refrain from their regular dose of pyridostigmine (if applicable) from 14 h before dosing until after the last pharmacodynamic measurement on Day 1 (see Table 13: Visit and Assessment Schedule). The cross-over design allowed intra-individual comparison of drug effects versus placebo (see FIG. 16). A balanced design was applied to control for first-order carry-over effects.
Part C was a double-blinded, placebo-controlled, three-way cross-over comparison of two single oral doses of NMD670 in men and women with stable symptomatic myasthenia gravis. 12 patients were enrolled. For each subject, the study consisted of three study periods during which subjects received either a single dose of NMD670 or placebo. On these study visits, subjects were asked to refrain from their regular dose of pyridostigmine (if applicable) for 14 hours before dosing. Single doses were administered in randomized order (400 mg free acid, 1200 mg free acid, or placebo p.o.), with a 7-day washout period between visits (FIG. 16). NMD670/placebo was administered with 240 ml of still water.
The Quantitative Myasthenia Gravis (QMG) total score (Barohn et al., Ann N YAcad Sci 1998, 841:769-72) is a validated clinical measure of sentinel muscle groups developed by the Myasthenia Gravis Foundation of America and the current clinical gold standard recommended for all prospective studies in MG. The QMG test is a physician-rated test using 13 assessments (see table 1), including facial strength, swallowing, respiratory, grip strength, and duration of time that limbs can be maintained in outstretched positions. Each of the 13 items is scored from 0 (none) to 3 (severe).
The total score can range from 0 to 39.

EAMG rats [2] = assay: 14-day dosing in EAMG animals: rotarod test; format: in vivo, rat
Method: To induce EAMG, 250 μL of emulsion of Complete Freund's Adjuvant, consisting of heat-inactivated Mycobacterium tuberculosis H37Ra in non-metabolizable oils, together with Phosphate-Buffered Saline (PBS) and 80 μg of the extracellular α-domain peptide fragment of the human nicotinic acetylcholine receptor (antigen) was injected subcutaneously in seven-week-old, anaesthetized Lewis rats. The disease-inducing antigen was supplied by the Hellenic Pasteur institute3. The emulsion was deposited at the tail base, left hindleg, and right foreleg. After injection, animals were allowed to recover and returned to their home cage maintained in ventilated racks under controlled temperature (20 to 22° C.) and humidity (˜55%) control, under a 12-h light/12-h dark cycle with food and water provided ad libitum. The animals had pathogen free status and the housing and changing system was designed to assure that the pathogen free status was preserved during the study. The EAMG rats were observed, weighed, and scored for MG symptoms weekly until symptoms of MG developed, whereafter animals were observed daily.
Sixteen (16) rats with an EAMG clinical score of 2 were allocated to the study and stratified to one of the two treatment groups (vehicle vs NMD670, 8 rats per group). Stratification was based on rotarod endurance and grip strength performance with the aim to obtain similar average starting points for the two groups. Grip strength and Rotarod performance were measured prior to treatment (day 0) and on days 1, 4, 7, 9, 11 and 14 during treatment. The treatment was administered by per oral gavage. Dosing was twice daily with 20 mg/kg NMD670 or vehicle (sterile water) for 14 days unless the rat was subjected to premature termination due to reaching humane endpoints. The dose solutions for the treatment groups were blinded. Thus, experimenters and subsequent analysis were blinded as to which group received CIC-1 inhibitor and which group received vehicle. Full analysis of data and statistics were concluded before unblinding the data. Plasma samples were obtained on days 0, 1 and 14, with muscle samples obtained on day 14 at termination.
Rotarod test was conducted on a Touchscreen Rotarod from Panlab (Model LE8305, Harward Apparatus). For testing the running performance, the rat was placed in one of 4 running lanes on the rotating rod that rats were challenged to run on. Prior to the first test on the rotarod on Day 0, the rat was allowed a 1-minute run at 4 rotations per minute (RPM), to familiarize with the apparatus. The rat was then allowed at least 5 minutes of rest before the test was conducted. To test the running performance, the rat was challenged with a protocol consisting of constantly accelerating speed from 4 to 40 RPM over 420 seconds. Test occasions consisted of 3 runs with at least 5 and no more than 15 minutes of rest between each run. Performance was quantified by the duration that the rat was able to remain on the rotating rod. Average values of the 3 runs per test occasion were used for further data processing.

EAMG rats [3] = assay: Force and EMG in sedated EAMG animals (triceps surae, sciatic nerve stimulation); format: in vivo, rat
[4] = 400 mg group, 3-hour measurements
[5] = 1200 mg group, 3- and 5-hour measurements
[6] = single doses, 12 patients with MG

Structure (SMILES): C[C@H](Oc1ccc(Br)cc1-c1ccon1)C(=O)O [NMD670, (2S)-2-[4-bromo-2-(1,2-oxazol-3-yl)phenoxy]propanoic acid]
- Patients achieving a 2-point or larger improvement in QMG total score [1, 4]: 6 of 12
- QMG responder rate (2-point or larger improvement from baseline compared to placebo) [1, 4]: 50%
- Patients achieving a 2-point or larger improvement in QMG total score ([1]; 400 mg group, 5-hour): 5 of 12
- QMG responder rate (2-point or larger improvement from baseline compared to placebo) ([1]; 400 mg group, 5-hour): 42%
- QMG total score, LSM change over placebo (given as positive improvement) ([1]; 400 mg treatment group, 3-hour timepoint, p=0.12): 1.3 points
- QMG total score, Arithmetic Mean change (given as positive improvement) ([1]; 400 mg treatment group, 5-hour timepoint): 2.1 points
- QMG total score, LSM change over placebo (given as positive improvement) ([1]; 400 mg treatment group, 5-hour timepoint, p=0.02): 1.7 points
- QMG total score, CFB over placebo, Arithmetic mean ([1]; 400 mg versus placebo, 3-hour): −1.6 points
- QMG total score, CFB over placebo, LSM ([1]; 400 mg versus placebo, 3-hour, p = 0.12): −1.2 points
- QMG total score, CFB over placebo, Arithmetic mean ([1]; 400 mg versus placebo, 5-hour): −2.1 points
- QMG total score, CFB over placebo, LSM ([1]; 400 mg versus placebo, 5-hour, p = 0.02): −1.7 points
- QMG total score, CFB over placebo, LSM ([1]; 400 mg versus placebo, Overall, p = 0.03, single oral dose, 12 MG patients): −1.5 points
- Patients achieving a 2-point or larger improvement in QMG total score [1, 5]: 5 of 12
- QMG responder rate (2-point or larger improvement from baseline compared to placebo) [1, 5]: 42%
- QMG total score, Least Mean Square change improvement from baseline over placebo ([1]; 1200 mg group, 3-hour timepoint): 0.9 points
- QMG total score, Least Mean Square change improvement from baseline over placebo ([1]; 1200 mg group, 5-hour timepoint): 1.1 points
- QMG total score, Least Mean Square change improvement from baseline over placebo ([1]; 1200 mg group, overall, non-statistically significant): 1.0 points
- QMG total score, CFB over placebo, Arithmetic mean ([1]; 1200 mg versus placebo, 3-hour): −1.2 points
- QMG total score, CFB over placebo, LSM ([1]; 1200 mg versus placebo, 3-hour, p = 0.25): −0.9 points
- QMG total score, CFB over placebo, Arithmetic mean ([1]; 1200 mg versus placebo, 5-hour): −1.5 points
- QMG total score, CFB over placebo, LSM ([1]; 1200 mg versus placebo, 5-hour, p = 0.14): −1.1 points
- QMG total score, CFB over placebo, LSM ([1]; 1200 mg versus placebo, Overall, p = 0.14): −1 points
- QMG individual items: double vision, ptosis and dysarthria compared to placebo ([1]; both 400 mg and 1200 mg doses, non-statistically significant): improved
- Patients meeting responder criterion (QMG) [1, 6]: up to 50%
- QMG total Score after single doses [1, 6]: clinically significant improvements
- QMG total score, LSM change from baseline improvement over placebo (given as positive improvement) ([1]; worded 'the NMD670 treatment arms', p=0.03 (Table 17: 400 mg overall)): 1.5 points
- Endurance on rotarod over vehicle group throughout the period of treatment (EAMG rats [2]; 14-day chronic dosing, 20 mg/kg twice daily): higher endurance on rotarod
- Rotarod performance (latency to fall in seconds) (EAMG rats [2]; day 0 (prior to treatment), 20 mg/kg twice daily per oral, P = 0.9478 vs vehicle): 28.5 ± 7.3 s
- Rotarod performance (latency to fall in seconds) (EAMG rats [2]; day 1, 20 mg/kg twice daily per oral, P > 0.9999 vs vehicle): 38.4 ± 8.7 s
- Rotarod performance (latency to fall in seconds) (EAMG rats [2]; day 4, 20 mg/kg twice daily per oral, P = 0.4613 vs vehicle): 37.8 ± 10.1 s
- Rotarod performance (latency to fall in seconds) (EAMG rats [2]; day 7, 20 mg/kg twice daily per oral, P = 0.7852 vs vehicle): 29.1 ± 8.8 s
- Rotarod performance (latency to fall in seconds) (EAMG rats [2]; day 9, 20 mg/kg twice daily per oral, P = 0.6753 vs vehicle): 27.5 ± 9.1 s
- Rotarod performance (latency to fall in seconds) (EAMG rats [2]; day 11, 20 mg/kg twice daily per oral, P = 0.0335 vs vehicle): 35.5 ± 12.6 s
- Rotarod performance (latency to fall in seconds) (EAMG rats [2]; day 14, 20 mg/kg twice daily per oral, P = 0.8122 vs vehicle): 19.0 ± 5.7 s
- Nerve-stimulated force and EMG amplitude in triceps surae (EAMG rats [3]; EAMG rat score 2, 40 mg per kg, 20 minutes after administration, 80 Hz for 1 second): rapid restoration of force and EMG amplitude
- Restoration of muscle force / EMG (EAMG rats [3]; EAMG rats, single per oral doses from 2 to 120 mg/kg): rapid and dose-dependent restoration of muscle force; also recorded: rapid and dose-dependent restoration of both EMG and force
